From ChEMBL document CHEMBL4715772, “A facile stereoselective synthesis of dispiro-indeno pyrrolidine/pyrrolothiazole-thiochroman hybrids and evaluation of their antimycobacterial, anticancer and AchE inhibitory activities” (Bioorg Med Chem, 2016)
Values after ≈ are worked out from the molar mass of the structure shown.

Columns and labels:
[1] = Cytotoxicity against African green monkey Vero cells assessed as cell viability after 72 hrs by MTT assay; assay type: cell-based; settings: chlorocebus sabaeus, read-out: MNCC
Acetylcholinesterase = Acetylcholinesterase (Homo sapiens, UniProt P22303); assay: Inhibition of AChE (unknown origin) using acetylthiocholine chloride as substrate preincubated with enzyme for 15 mins followed by substrate addition by Ellman's method
HT-29 = assay: Antiproliferative activity against human HT-29 cells assessed as inhibition of cell proliferation incubated for 72 hrs by CellTiter-Glo assay; assay type: functional, cell-based; settings: HT-29, 72 h
MCF7 [2] = assay: Antiproliferative activity against human MCF7 cells assessed as inhibition of cell proliferation at 50 uM incubated for 72 hrs by CellTiter-Glo assay relative to control; assay type: functional; settings: MCF7, read-out: INH
MCF7 [3] = assay: Antiproliferative activity against human MCF7 cells assessed as inhibition of cell proliferation incubated for 72 hrs by CellTiter-Glo assay; assay type: functional, cell-based; settings: MCF7, 72 h
[4] = test system: Mycobacterium tuberculosis; assay: Antimycobacterial activity against Mycobacterium tuberculosis H37Rv assessed as inhibition of bacterial growth by microdilution alamar blue broth assay; assay type: functional, organism-based

Acetylcholinesterase, sequence (P22303 whole entry): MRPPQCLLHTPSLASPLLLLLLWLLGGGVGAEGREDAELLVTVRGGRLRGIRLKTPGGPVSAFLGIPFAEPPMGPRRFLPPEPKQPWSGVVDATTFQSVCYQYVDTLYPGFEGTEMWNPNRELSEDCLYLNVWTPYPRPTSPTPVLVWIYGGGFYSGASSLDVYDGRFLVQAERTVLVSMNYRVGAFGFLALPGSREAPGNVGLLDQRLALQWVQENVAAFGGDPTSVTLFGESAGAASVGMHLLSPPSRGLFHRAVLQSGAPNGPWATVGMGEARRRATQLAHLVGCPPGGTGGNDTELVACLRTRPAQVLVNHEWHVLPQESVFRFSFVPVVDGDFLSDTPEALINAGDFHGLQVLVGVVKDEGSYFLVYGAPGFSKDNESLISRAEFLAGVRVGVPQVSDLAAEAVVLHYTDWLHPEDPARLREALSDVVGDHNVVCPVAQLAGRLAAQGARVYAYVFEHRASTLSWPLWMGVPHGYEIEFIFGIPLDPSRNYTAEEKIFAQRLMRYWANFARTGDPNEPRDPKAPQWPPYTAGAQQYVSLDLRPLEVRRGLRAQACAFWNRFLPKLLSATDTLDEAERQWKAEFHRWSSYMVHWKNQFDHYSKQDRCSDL

SMILES	MNTC at 72 h [1]	IC50 (Acetylcholinesterase)	IC50 (HT-29)	inhibition at 50 µM (MCF7 [2])	IC50 (MCF7 [3])	IC50 [4]	IC90 [4]	MIC [4]
CN1C[C@@H](c2cccc3ccccc23)[C@@]2(CSc3ccccc3C2=O)C12C(=O)c1ccccc1C2=O	> 6.25 µg/mL	2.12 µM	97.2 µM	< 50%	86 µM	6.87 µM	14.6 µM	25 µM (≈ 12.2 µg/mL)
CC[C@@H](CO)NCCN[C@@H](CC)CO [ETHAMBUTOL]	> 6.25 µg/mL					< 1.56 µM		12.5 µM (≈ 2.55 µg/mL)
CC(C)c1ccc([C@@H]2CN(C)C3(C(=O)c4ccccc4C3=O)[C@]23CSc2ccccc2C3=O)cc1	> 6.25 µg/mL	19.8 µM	98.3 µM	< 50%	93 µM	25.9 µM	44.6 µM	100 µM (≈ 48.2 µg/mL)
COc1ccc([C@@H]2[C@H]3CSCN3C3(C(=O)c4ccccc4C3=O)[C@]23CSc2ccccc2C3=O)cc1	> 6.25 µg/mL	1.1 µM	97.2 µM	< 50%	86 µM	12.9 µM	24.6 µM	50 µM (≈ 25.7 µg/mL)
CN1C[C@@H](c2ccc(Br)cc2)[C@@]2(CSc3ccccc3C2=O)C12C(=O)c1ccccc1C2=O	> 6.25 µg/mL	28.3 µM	88.1 µM	< 50%	101 µM	29.9 µM	41.9 µM	50 µM (≈ 25.9 µg/mL)
O=C1c2ccccc2C(=O)C12N1CSC[C@@H]1[C@@H](c1ccc(F)cc1)[C@@]21CSc2ccccc2C1=O	> 6.25 µg/mL	19.8 µM	95.9 µM	< 50%	116 µM	13.2 µM	25.9 µM	50 µM (≈ 25.1 µg/mL)
Cc1ccc([C@@H]2CN(C)C3(C(=O)c4ccccc4C3=O)[C@]23CSc2ccccc2C3=O)cc1	> 6.25 µg/mL	6.6 µM	101 µM	< 50%	105 µM	47.2 µM	66.5 µM	100 µM (≈ 45.4 µg/mL)
CC(C)c1ccc([C@@H]2[C@H]3CSCN3C3(C(=O)c4ccccc4C3=O)[C@]23CSc2ccccc2C3=O)cc1	> 6.25 µg/mL	28.3 µM	93.4 µM	< 50%	91.8 µM	45 µM	76.4 µM	100 µM (≈ 52.6 µg/mL)
O=C1c2ccccc2C(=O)C12N1CSC[C@@H]1[C@@H](c1ccc(Cl)cc1)[C@@]21CSc2ccccc2C1=O	> 6.25 µg/mL	21.3 µM	76.7 µM	< 50%	104 µM	7.2 µM	15.5 µM	50 µM (≈ 25.9 µg/mL)
CN1CC(c2ccccc2Cl)[C@@]2(CSc3ccccc3C2=O)C12C(=O)c1ccccc1C2=O (single isomer, unassigned)	> 6.25 µg/mL	10.1 µM	97.2 µM	< 50%	86 µM	47.2 µM	66.5 µM	100 µM (≈ 47.4 µg/mL)
COc1ccc([C@@H]2CN(C)C3(C(=O)c4ccccc4C3=O)[C@]23CSc2ccccc2C3=O)cc1	> 6.25 µg/mL	1.16 µM	93.4 µM	< 50%	102 µM	18.3 µM	36.5 µM	50 µM (≈ 23.5 µg/mL)
O=C1c2ccccc2C(=O)C12N1CSC[C@@H]1[C@@H](c1ccccc1Br)[C@@]21CSc2ccccc2C1=O	> 6.25 µg/mL							
CN1C[C@@H](c2ccc(Cl)cc2)[C@@]2(CSc3ccccc3C2=O)C12C(=O)c1ccccc1C2=O	> 6.25 µg/mL	22.2 µM	94 µM	< 50%	97 µM	8.46 µM	12.4 µM	50 µM (≈ 23.7 µg/mL)
O=C1c2ccccc2C(=O)C12N1CSC[C@@H]1[C@@H](c1ccc(Br)cc1)[C@@]21CSc2ccccc2C1=O	> 6.25 µg/mL	34.6 µM	86.8 µM	< 50%	92.9 µM	21.9 µM	47.9 µM	50 µM (≈ 28.1 µg/mL)
CN1C[C@@H](c2cccs2)[C@@]2(CSc3ccccc3C2=O)C12C(=O)c1ccccc1C2=O	> 6.25 µg/mL	21.2 µM	95.9 µM	< 50%	123 µM	25.9 µM	44.6 µM	100 µM (≈ 44.6 µg/mL)
Cc1ccc([C@@H]2[C@H]3CSCN3C3(C(=O)c4ccccc4C3=O)[C@]23CSc2ccccc2C3=O)cc1	> 6.25 µg/mL	7.11 µM	90 µM	< 50%	107 µM	28.6 µM	47.7 µM	50 µM (≈ 24.9 µg/mL)
NNC(=O)c1ccncc1 [ISONIAZID]	> 6.25 µg/mL						0.29 µM	0.31 µM (≈ 0.0425 µg/mL)
O=C1c2ccccc2C(=O)C12N1CSC[C@@H]1[C@@H](c1cccc(Br)c1)[C@@]21CSc2ccccc2C1=O	> 6.25 µg/mL	38.3 µM	79.6 µM	< 50%	84.8 µM	17.2 µM	35.5 µM	50 µM (≈ 28.1 µg/mL)
O=C1c2ccccc2C(=O)C12N1CSC[C@@H]1[C@@H](c1cccc(F)c1)[C@@]21CSc2ccccc2C1=O	> 6.25 µg/mL	12.2 µM	91.7 µM	< 50%	116 µM	16.4 µM	22 µM	50 µM (≈ 25.1 µg/mL)
COc1cccc2c1C(=O)c1c(O)c3c(c(O)c1C2=O)C[C@@](O)(C(=O)CO)C[C@@H]3O[C@H]1C[C@H](N)[C@H](O)[C@H](C)O1 [DOXORUBICIN]			12.9 µM					
CN1C[C@@H](c2cccc(Br)c2)[C@@]2(CSc3ccccc3C2=O)C12C(=O)c1ccccc1C2=O	> 6.25 µg/mL	19.8 µM	108 µM	< 50%	110 µM	5.81 µM	16.1 µM	25 µM (≈ 13 µg/mL)
CN1CC(c2ccccc2Br)[C@@]2(CSc3ccccc3C2=O)C12C(=O)c1ccccc1C2=O (single isomer, unassigned)	> 6.25 µg/mL	27.1 µM	86.8 µM	< 50%	92.9 µM	18.3 µM	36.5 µM	50 µM (≈ 25.9 µg/mL)
O=C1c2ccccc2C(=O)C12N1CSC[C@@H]1[C@@H](c1cccc3ccccc13)[C@@]21CSc2ccccc2C1=O	> 6.25 µg/mL	16.5 µM	93.4 µM	< 50%	102 µM	28.6 µM	47.7 µM	50 µM (≈ 26.7 µg/mL)
CN1C[C@@H](c2ccccc2)[C@@]2(CSc3ccccc3C2=O)C12C(=O)c1ccccc1C2=O	> 6.25 µg/mL	11.1 µM	86.7 µM	< 50%	104 µM	15.2 µM	27.9 µM	100 µM (≈ 44 µg/mL)
N[C@@H]1CONC1=O [CYCLOSERINE]	> 6.25 µg/mL							25 µM (≈ 2.55 µg/mL)
CCc1nc(N)nc(N)c1-c1ccc(Cl)cc1 [PYRIMETHAMINE]	> 6.25 µg/mL							100 µM (≈ 24.9 µg/mL)
